Literature values as cited in PMC5131364, “Pharmacologic modulation of RORγt translates to efficacy in preclinical and translational models of psoriasis and inflammatory arthritis” (Scientific Reports, 2016).

Experiments:
[1] = test system: mouse CIA model; parameters: method as in PMID 24574218; conditions: mouse CIA model ref 49; cited from earlier work
[2] = test system: psoriatic skin; conditions: after 12 weeks of treatment ref 70; cited from earlier work

| Molecule | joint inflammation and clinical scores [1] | IL-17A and IL-17F gene expression in psoriatic skin [2] |
| --- | --- | --- |
| OC(c1ccc(-c2ccc(CN3CCN(Cc4ccncc4)CC3)cc2)c(F)c1)(C(F)(F)F)C(F)(F)F [SR2211] | reduce joint inflammation | – |
| guselkumab: anti-IL-23 mAb | – | significant inhibition |
